According to BindingDB's records for doi:10.1021/bi1017182 (University of California Riverside, 2011):

Molecular target: T1, Carbon monoxide dehydrogenase small chain (Afipia carboxidovorans (strain ATCC 49405 / DSM 1227 / KCTC 32145 / OM5), UniProt P19921)
T1 sequence (P19921 whole entry): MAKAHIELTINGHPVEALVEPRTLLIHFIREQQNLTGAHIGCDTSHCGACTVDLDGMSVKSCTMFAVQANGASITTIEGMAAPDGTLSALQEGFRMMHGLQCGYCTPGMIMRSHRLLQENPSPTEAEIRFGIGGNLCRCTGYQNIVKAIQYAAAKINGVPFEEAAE
Experiment: Inhibition Assay
Description: Inhibition of CODH by Diphenyliodomium chloride. Inactivation of the FAD cofactor of CODH was accomplished by covalent modification of the flavin with diphenyliodonium chloride using a modification of the procedure of Chakraborty and Massey.

Structure (SMILES) | Kd [µM]
O=C1C=CC(=O)C=C1 [1,4-Benzoquinone] | 47.6
O=C1C=CC(=O)c2ccccc21 [1,4-dihydronaphthalene-1,4-dione] | 140
